We go through two molecules from paper PMC7404261 (2020).

Experiment [1] deals with ssDNA-G4-Rv (DNA, single strand) ACCCCTTCCGCGCGCCTTTTCCCG
The experiment can be described thus: ethidium bromide staining of nondenaturing gel. The conditions noted are these: K+ (100 mM KCl annealing, 10 mM KCl gel); Tris/HCl pH 7.5 annealing; 1x TBE gel; 1 µg/mL EthBr after ThT staining.

The subject of experiment [2] is dsDNA-G4 (DNA, duplex) CGGGAAAAGGCGCGCGGAAGGGGT/ACCCCTTCCGCGCGCCTTTTCCCG
Put plainly: ethidium bromide staining of nondenaturing gel. As to conditions: K+ (100 mM KCl annealing, 10 mM KCl gel); Tris/HCl pH 7.5 annealing; 1x TBE gel; 1 µg/mL EthBr after ThT staining.

Experiment [3] relates to HpTYMS-G4-T-WC (DNA, hairpin) CCCTTTTCCGCGCGCCTTCCCCTTTTTGGGGAAGGCGCGCGGAAAAGGG
Put plainly: ThT staining of nondenaturing gel. The conditions noted are these: K+ (100 mM KCl annealing, 10 mM KCl gel); Tris/HCl pH 7.5 annealing; 1x TBE gel; stained with 5 µM ThT.

Experiment [4] has as its system ssDNA-G4-Fw (DNA, G4) CGGGAAAAGGCGCGCGGAAGGGGT
Put plainly: ThT staining of nondenaturing gel. As to conditions: K+ (100 mM KCl annealing, 10 mM KCl gel); Tris/HCl pH 7.5 annealing; 1x TBE gel; stained with 5 µM ThT.

For experiment [5], the system named is dsDNA-G4 (DNA, duplex) CGGGAAAAGGCGCGCGGAAGGGGT/ACCCCTTCCGCGCGCCTTTTCCCG
The experiment can be described thus: ThT staining of nondenaturing gel. The conditions noted are these: K+ (100 mM KCl annealing, 10 mM KCl gel); Tris/HCl pH 7.5 annealing; 1x TBE gel; stained with 5 µM ThT.

In experiment [6] the test system is ssDNA-G4-Rv (DNA, single strand) ACCCCTTCCGCGCGCCTTTTCCCG
Put plainly: ThT staining of nondenaturing gel. As to conditions: K+ (100 mM KCl annealing, 10 mM KCl gel); Tris/HCl pH 7.5 annealing; 1x TBE gel; stained with 5 µM ThT.

The test system of experiment [7] is HpTYMS-G4-T (DNA, hairpin) GGGAAAAGGCGCGCGGAAGGGGTTTTTGGGGAAGGCGCGCGGAAAAGGG
Put plainly: ThT staining of nondenaturing gel. As to conditions: K+ (100 mM KCl annealing, 10 mM KCl gel); Tris/HCl pH 7.5 annealing; 1x TBE gel; stained with 5 µM ThT.

Turning to `CC[n+]1c(-c2ccccc2)c2cc(N)ccc2c2ccc(N)cc21`, the binding result in experiment [1] and in experiment [2] was “yes” each time.
Regarding `Cc1ccc2c(c1)sc(-c1ccc(N(C)C)cc1)[n+]2C`, the binding entry in experiment [3] is “yes”; in experiment [4], “yes”; in experiment [5], “no”; in experiment [6], “no”; in experiment [7] it was “yes”.
